Experiment: isobaric coefficient of expansion
Conditions: Liquid, Micro DSCII

CCCCn1cc[n+](C)c1.[F][Sb-]([F])([F])([F])([F])[F] [1-butyl-3-methylimidazolium hexafluoroantimonate]
isobaric coefficient of expansion
Conditions | 5000 kPa | 10000 kPa | 15000 kPa | 20000 kPa | 25000 kPa | 30000 kPa | 35000 kPa | 40000 kPa | 45000 kPa | 50000 kPa
278.15 K | 0.000636 1/K | 0.000627 1/K | 0.000619 1/K | 0.000614 1/K | 0.000607 1/K | 0.0006 1/K | 0.000593 1/K | 0.000589 1/K | 0.000582 1/K | 0.000575 1/K
288.15 K | 0.00063 1/K | 0.000621 1/K | 0.000614 1/K | 0.000609 1/K | 0.000603 1/K | 0.000596 1/K | 0.000589 1/K | 0.000582 1/K | 0.000575 1/K | 0.000573 1/K
298.15 K | 0.000624 1/K | 0.000619 1/K | 0.000609 1/K | 0.000602 1/K | 0.000597 1/K | 0.000588 1/K | 0.000581 1/K | 0.000576 1/K | 0.000571 1/K | 0.000566 1/K
308.15 K | 0.00062 1/K | 0.00061 1/K | 0.000604 1/K | 0.000596 1/K | 0.000589 1/K | 0.000583 1/K | 0.000576 1/K | 0.000571 1/K | 0.000563 1/K | 0.000558 1/K
318.15 K | 0.000612 1/K | 0.000609 1/K | 0.000599 1/K | 0.000591 1/K | 0.000584 1/K | 0.000577 1/K | 0.00057 1/K | 0.000564 1/K | 0.000557 1/K | 0.00055 1/K
328.15 K | 0.000609 1/K | 0.000601 1/K | 0.000595 1/K | 0.000589 1/K | 0.00058 1/K | 0.000573 1/K | 0.000566 1/K | 0.000559 1/K | 0.000553 1/K | 0.000547 1/K
338.15 K | 0.000607 1/K | 0.000599 1/K | 0.000593 1/K | 0.000585 1/K | 0.000575 1/K | 0.000569 1/K | 0.000563 1/K | 0.000556 1/K | 0.000549 1/K | 0.000545 1/K
348.15 K | 0.000602 1/K | 0.000597 1/K | 0.000588 1/K | 0.000579 1/K | 0.000574 1/K | 0.000567 1/K | 0.000562 1/K | 0.000555 1/K | 0.000549 1/K | 0.000542 1/K
